The conditions of test [1]: equivalent to dexamethasone 0.75 mg; cited from earlier work.
The test system of test [2] is LPS-GalN challenged mice. As to the kind of experiment: LPS-GalN model of fatal cytokine storm and sepsis; RJX, DEX or RJX+DEX 2 hours post LPS-GalN. Type of test: in vivo, BALB/c mice. As to conditions: for Censored: alive at 24 h; for Events: deaths within 24 h.
[3] abbreviates: RJX 0.7 ml/kg (n=20), DEX 0.6 mg/kg (n=10), or both (n=20).

The structures appear in SMILES notation.

With `C[C@]12CCC(=O)C=C1CC[C@@H]1[C@@H]2C(=O)C[C@@]2(C)[C@H]1CC[C@]2(O)C(=O)CO` [Cortisone], the “Approximate Equivalent Dose” value in test [1] was 25 mg.
With `C[C@@H]1C[C@H]2[C@@H]3CCC4=CC(=O)C=C[C@]4(C)[C@@]3(F)[C@@H](O)C[C@]2(C)[C@@]1(O)C(=O)CO` [DEX, dexamethasone], the Censored in test [2] (DEX 0.1 mg/kg i.p. 2 h post LPS-GalN, n=6) is reported as 1; in test [2] (DEX 0.6 mg/kg i.p. 2 h post LPS-GalN, n=6) it was 3; in test [2] (DEX 6.0 mg/kg i.p. 2 h post LPS-GalN, n=6) it was 4; in test [2] (RJX 0.7 ml/kg (n=20), DEX 0.6 mg/kg (n=10), or both (n=20) 2 h post LPS-GalN), 5. Further, the Median survival was found to be 5.1 h in test [2] (DEX 0.1 mg/kg, n=6) and 15.0 h in test [2] (DEX 0.6 mg/kg, n=6). In test [2] (DEX 0.1 mg/kg, n=6), the “Proportion (24-h mortality)” value was determined as 83.3%. In addition, the Events in test [2] (DEX 0.1 mg/kg, n=6) came out at 5; in test [2] (DEX 0.6 mg/kg, n=6), 3; in test [2] (DEX 6.0 mg/kg, n=6) it was 2; in test [2] (setting [3]), 5. For the same compound, the “Proportion (mortality)” value is reported as 50.0% in test [2] (DEX 0.6 mg/kg, n=6); 33.3% in test [2] (DEX 6.0 mg/kg, n=6); 50.0% in test [2] (setting [3]). Also, the “lung histopathological ALI scores, range” value in test [2] (RJX 0.7 ml/kg, DEX 6.0 mg/kg, alone or combined, n=6) was 1-3. Also, in test [2] (single dose at 2 hours post-LPS-GalN, sacrificed at 24 hours, FIG. 20), the “ALI score of representative mouse” value is listed as 2.
In the case of `C[C@]12CCC(=O)C=C1CC[C@@H]1[C@@H]2[C@@H](O)C[C@@]2(C)[C@H]1CC[C@]2(O)C(=O)CO` [Hydrocortisone], the “Approximate Equivalent Dose” value in test [1] is recorded as 20 mg.
In the case of `C[C@]12C=CC(=O)C=C1CC[C@@H]1[C@@H]2[C@@H](O)C[C@@]2(C)[C@H]1CC[C@]2(O)C(=O)CO` [Prednisolone], the “Approximate Equivalent Dose” value in test [1] is on record as 5 mg.
Turning to `C[C@]12C=CC(=O)C=C1CC[C@H]1[C@@H]3C[C@@H](O)[C@](O)(C(=O)CO)[C@@]3(C)C[C@H](O)[C@@]12F` [Triamcinolone], in test [1], the “Approximate Equivalent Dose” value is recorded as 4 mg.
